The text below walks through data of patent US8242126B2, “Quinazolinedione derivatives, preparation thereof and therapeutic uses thereof” (Sanofi, priority 2007, dated 2012).

In general, IC50 refers to the midpoint of a concentration-inhibition curve.

In one test the test system is CLL-PBMCs. The conditions noted are these: PBMCs of patients suffering from chronic lymphocytic leukaemia; cited from earlier work.
The test system of another test is PBMCs of normal subjects. The settings on record: cited from earlier work.
The target of the next test is T1, Human PDE7 (Homo sapiens, UniProt Q13946).
T1 construct: Human PDE7 was partially purified from the HUT-78 cell line; endogenous in cells
Description: PDE7 enzymatic assay (radioactive cAMP / 5′-AMP separation by TLC on PEI cellulose). It is filed as biochemical. The method, then: The ability of the compounds of formula (I) to inhibit PDE7 is measured using an enzymatic assay based on the separation of radioactive cAMP (substrate of PDE7) from the radioactive 5′-AMP (product of the enzymatic reaction) by thin layer chromatography on polyethyleneimine (PEI) cellulose, after halting the enzymatic reaction. The 5′-AMP is extracted quantitatively from the PEI cellulose and its radioactivity is measured using a liquid scintillation counter.
The inhibitory activity of the compounds of formula (I) with regard to PDE7 is represented by the inhibition constant IC50, defined as the concentration of the compound (inhibitor) tested in the assay which makes it possible to reduce the enzymatic activity of PDE7 by 50%. The lower the IC50 values, the greater the inhibitory power of the compounds.
Human PDE7 was partially purified from the HUT-78 cell line by following a method analogous to that described by Bloom and Beavo (Proc. Natl. Acad. Sci. USA, (1996) 93, 14188-14192). The enzyme preparation obtained is stored at −80° C. in a buffer comprising 20 mM of Tris-HCl (pH 7.0), 5 mM of MgCl2, 4 mM of EDTA, 1 mM of dithiothreitol and 20% of glycerol. […] The Michaelis constant (Km) of PDE7 for cAMP, measured using the radiochemical assay described below, is 21 nM.
The compounds of formula (I) to be tested as PDE7 inhibitors are dissolved in DMSO at a concentration of 10 mM. These solutions are subsequently diluted in cascade in DMSO in order to obtain solutions with the desired concentrations. The latter are subsequently diluted to one-twentieth in the assay buffer to give 5% DMSO solutions. The latter are finally diluted to one-fifth in the enzymatic assay.
The assay is carried out in 1.5 ml Eppendorf tubes comprising 40 mM of Tris-HCl (pH 7.5), 15 mM of MgCl2, 1 mM of EGTA, 0.5 mg/ml of bovine serum albumin, […] of [^3H]-cAMP (corresponding to a cAMP concentration of between 15 and 25 nM), 10 μM of rolipram and PDE7 in a final volume of 100 μl. The assay is carried out in the absence (control sample) or in the presence (treated sample) of the compounds tested as PDE7 inhibitors. The final concentration of DMSO in the assay is 2%. The reaction is initiated by addition of enzyme and the samples are maintained at ambient temperature for 30 minutes. The enzymatic dilution is adjusted so as to obtain a degree of conversion of 10 to 15%. The enzymatic reaction is halted by immersion of the stoppered Eppendorf tubes in a water bath at 100° C. for 3 minutes. Blanks (reaction halted immediately after addition of the enzyme) are included in each experiment. The samples are subsequently centrifuged at 10 000×g for 1 minute and an aliquot portion of 10 μl of supernatant is deposited 2 cm from the bottom edge of a sheet of PEI cellulose on which 10 μg of cAMP and 10 μg of 5′-AMP have been deposited beforehand. In order to facilitate the migration and to make it easier to cut out the strips of PEI cellulose comprising the 5′-AMP, which take place subsequently, 18 migration lanes with a width of 1 cm are delimited per plate by scraping the cellulose with a spatula over a width of 1 mm. The plates are developed over their entire length with a 0.30 M solution of LiCl in water by ascending chromatography. The 5′-AMP (Rf=0.20) and the cAMP (Rf=0.47) are visualized under UV light at 254 nm. The strips of PEI cellulose comprising the 5′-AMP are cut out and the nucleotide is quantitatively extracted in counting flasks with 2 ml of a solution which is 16M in formic acid and 2M in ammonium formate in water (rotary stirrer for 15 min). After addition of 10 ml of scintillation liquid (OptiPhase HiSafe 3 from Perkin-Elmer/Wallac), the radioactivity is counted using a liquid scintillation counter (model 1414, Perkin-Elmer/Wallac). Each assay is carried out in duplicate. […]

Test [1] deals with Human peripheral blood mononuclear cells (PBMNCs). Description: Inhibition of T cell proliferation: [3H]-thymidine incorporation in PBMNCs activated by anti-CD3 and anti-CD28. Format: cell-based. The conditions noted are these: PBMC, 72 h + 8 h [3H]-thymidine, mean of the three experiments. As to the method: Human peripheral blood mononuclear cells (PBMNCs) were separated from the blood of healthy donors using a centrifuging gradient on a Ficoll-Paque™ Plus (GE Healthcare Bio-Sciences AB code 17-1440-03, Uppsala). A mixture of 5.0 ml of blood and 5.0 ml of phosphate buffered saline (PBS Gibco 14190) was deposited on 10.0 ml of Ficoll-Paque in a 50 ml Blue max tube (Becton Dickinson 352070) and centrifuged with 900 g for 30 min. The band of PBMNCs was withdrawn, washed in PBS and then centrifuged with 900 g for 10 minutes. Finally, the PBMNCs were suspended (2.5×10^5 cells/ml) in an RPMI 1640 complete medium+Glutamax (Gibco 61870) additivated with 10% of FCS, the complement of which has been heat inactivated, and with penicillin-streptomycin (Gibco 15140).
The PBMNCs were cultured in flat-bottomed 96-well plates, in a proportion of 0.5×10^5 cells/well in 200 μl of RPMI 1640 complete medium. The cells were activated by two monoclonal antibodies, one of anti-CD3 specificity, 20 ng/ml (Pharmingen 555329), and the other of anti-CD28 specificity, 200 ng/ml (Pharmingen 555725), in the presence of PDE7 inhibitors at five different concentrations, 10 μM, 3.3 μM, 1.1 μM, 0.36 μM and 0.12 μM, or of cyclosporin A, which acts as positive control of the halting of proliferation. […] After incubating for an additional 8 hours, the PBMNCs were collected on a Tomtec cell collector (Wallac) using a glass fibre filter (Wallac 1450-421), and incorporation of the [^3H]-thymidine in the nucleus of the cells was measured using a Microbeta 1450-Trilux (Wallac). The inhibition of the proliferation, expressed as percentage, was calculated using the following equation: 100−(cpm mean value of the cells in the presence of the compound/cpm mean value of the cells in the absence of the compound)×100. […]
A general note: Incorporation of labelled thymidine or its analogues reports DNA synthesis.

The next test relates to PDE8. Description: PDE8 enzymatic assay equivalent to that described for PDE7. Format: biochemical.
The mark [2] stands for this setting: human PDE7 partially purified from HUT-78 cells, 10 μM rolipram present, read-out: IC50 (inhibition of PDE7).
Setting [3] is: table comparing PDE7 and PDE8, read-out: IC50 PDE7.

Like-named read-outs stand apart in the source and are kept apart here.

T1 sequence (Q13946 whole entry): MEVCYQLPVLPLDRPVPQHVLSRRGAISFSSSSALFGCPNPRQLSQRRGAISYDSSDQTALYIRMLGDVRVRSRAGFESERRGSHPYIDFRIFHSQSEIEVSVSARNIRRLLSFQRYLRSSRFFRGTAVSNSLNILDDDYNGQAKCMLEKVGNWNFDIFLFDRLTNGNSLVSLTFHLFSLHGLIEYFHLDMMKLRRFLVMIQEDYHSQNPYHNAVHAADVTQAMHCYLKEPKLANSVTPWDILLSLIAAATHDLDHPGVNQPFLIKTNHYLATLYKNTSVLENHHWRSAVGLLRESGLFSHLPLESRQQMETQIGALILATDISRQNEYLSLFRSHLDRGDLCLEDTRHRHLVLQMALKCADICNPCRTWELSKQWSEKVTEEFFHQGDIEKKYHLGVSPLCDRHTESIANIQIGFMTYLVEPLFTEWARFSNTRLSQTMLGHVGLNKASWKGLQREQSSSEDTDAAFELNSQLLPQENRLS

For `Cc1ccc([N+](=O)[O-])cc1S(=O)(=O)N(C)C` [BRL-50481], the “apoptosis of CLL-PBMCs” value in the test on CLL-PBMCs is “induces in a dose-dependent way the apoptosis”. The “effect on PBMCs of normal subjects” value in the test on PBMCs of normal subjects was “without effect”. `COc1ccc(Cn2c(=O)c3cc(OC(F)F)ccc3n(C3CCN(C=O)CC3)c2=O)cc1OC` [No. 111, 4-[6-(difluoromethoxy)-3-(3,4-dimethoxybenzyl)-2,4-dioxo-3,4-dihydroquinazolin-1(2H)-yl]piperidine-1-carbaldehyde]: the IC50 at Human PDE7 (setting [2]) came to 0.0067 µM. In the case of `COc1ccc(Cn2c(=O)c3cc(OC(C)C#N)ccc3n(C3CCN(C=O)CC3)c2=O)cc1OC` (stereo not drawn) [No. 1, 2-{[3-(3,4-dimethoxybenzyl)-1-(1-formylpiperidin-4-yl)-2,4-dioxo-1,2,3,4-tetrahydroquinazolin-6-yl]oxy}propanenitrile], the IC50 in test [1] was 0.4 µM.

As to `N#Cc1cc(Cn2c(=O)c3cc(OC(CF)CF)ccc3n(C3CCN(C=O)CC3)c2=O)ccc1-c1ccccc1` [No. 294, 4-({6-[2-fluoro-1-(fluoromethyl)ethoxy]-1-(1-formylpiperidin-4-yl)-2,4-dioxo-1,4-dihydroquinazolin-3(2H)-yl}methyl)biphenyl-2-carbonitrile], the IC50 was 0.015 µM in the test on PDE8 and 0.037 µM at Human PDE7 (setting [3]). Regarding `COc1cc(Cn2c(=O)c3cc(OC(CF)CF)ccc3n(C3CCN(C=O)CC3)c2=O)ccc1OCC(=O)N1CCCCC1` [No. 251, 4-{6-[2-fluoro-1-(fluoromethyl)ethoxy]-3-[3-methoxy-4-(2-oxo-2-(piperidin-1-yl)ethoxy)benzyl]-2,4-dioxo-3,4-dihydroquinazolin-1(2H)-yl}piperidine-1-carbaldehyde], on Human PDE7 (setting [3]), the IC50 came to 0.046 µM.

As to `COc1ccc(Cn2c(=O)c3c(Cl)cc(Cl)cc3n(C3CCN(C=O)CC3)c2=O)cc1OC` [No. 97, 4-[5,7-dichloro-3-(3,4-dimethoxybenzyl)-2,4-dioxo-3,4-dihydroquinazolin-1(2H)-yl]piperidine-1-carbaldehyde], the IC50 at Human PDE7 (setting [2]) came out at 0.061 µM. Still for that read-out and setting: then `COc1ccc(Cn2c(=O)c3cc(CNC(C)=O)ccc3n(C3CCN(C=O)C3)c2=O)cc1OC` (stereo not drawn) [No. 77, N-{[3-(3,4-dimethoxybenzyl)-1-(1-formylpyrrolidin-3-yl)-2,4-dioxo-1,2,3,4-tetrahydroquinazolin-6-yl]methyl}acetamide], with 0.82 µM. With `COc1ccc(Cn2c(=O)c3cc(OCC(F)F)ccc3n(C3CCN(C=O)CC3)c2=O)cc1OC` [No. 16, 4-[6-(2,2-difluoroethoxy)-3-(3,4-dimethoxybenzyl)-2,4-dioxo-3,4-dihydroquinazolin-1(2H)-yl]piperidine-1-carbaldehyde], the IC50 on Human PDE7 (setting [2]) stood at 0.015 µM; in test [1], 1.3 µM.

As for `COc1ccc(Cn2c(=O)c3cc(OCCO)ccc3n(C3CCN(C=O)CC3)c2=O)cc1OC` [No. 72, 4-[3-(3,4-dimethoxybenzyl)-6-(2-hydroxyethoxy)-2,4-dioxo-3,4-dihydroquinazolin-1(2H)-yl]piperidine-1-carbaldehyde], at Human PDE7 (setting [2]), the IC50 came to 0.089 µM. For the compound `COc1ccc(Cn2c(=O)c3cc(OC(CF)CF)ccc3n(C3CCN(C=O)CC3)c2=O)cc1OC` [No. 11, 4-[3-(3,4-dimethoxybenzyl)-6-[2-fluoro-1-(fluoromethyl)ethoxy]-2,4-dioxo-3,4-dihydroquinazolin-1(2H)-yl]piperidine-1-carbaldehyde], the IC50 stood at 0.14 µM in the test on PDE8, 0.039 µM on Human PDE7 (setting [2]) and 0.9 µM in test [1].
